How the values were obtained:
[1] = target: T1, His-TEV-DYRK1A Kinase domain (aa127-485) (Homo sapiens, UniProt Q13627); test: Kinase ADP assay (ADP Hunter), DYRK1A kinase domain; type: biochemical; settings: 20 μM ATP
T1 construct: His-TEV-DYRK1A Kinase domain (aa127-485); His tag (N); TEV protease cleavage site (N)
Protocol: The enzyme reaction was conducted in assay buffer (pH 7.4), containing 15 mM Hepes; 20 mM NaCl; 1 mM EGTA; 10 mM MgCl2; 0.02% Tween20 and 0.1 mg/ml Bovine-y-globulin. Test compounds of the invention were added in reaction buffer in a range of concentrations for 10 minutes at 30° C. in the presence of 20 nM DYRK1A enzyme, 40 μM peptide substrate and 20 μM ATP. Detection reagents (DiscoveRx 90-0083), ADP Hunter Plus Reagent A and then ADP Hunter Plus Reagent B were added. After a following 20 minutes incubation at 30° C., ADP Hunter Plus Stop Solution was added. The fluorescence intensity was measured at 590 nm.

[2] = target: DYRK1A (Homo sapiens, UniProt Q13627); test: Cellular DYRK1 autophosphorylation assay in U2-OS cells; type: cell-based; set-up: full-length, wild-type human DYRK1A (NM_001396) with an HA tag; expressed in transfected cells; host or cells: human U2-OS osteosarcoma cells, transient transfection of a pcDNA3.1 plasmid; settings: U2-OS cells transfected with HA-tagged human DYRK1A, 5 hours exposure; read-out: IC50 (μM) P-Ser520-Dyrk1A -Cell assay
Protocol: On day 2, cells were exposed to a range of concentrations of the test compounds of the invention for 5 hours. […] The relative levels of phospho-Ser520-DYRK1A were assayed using either western blotting or the Mesoscale ELISA platform. For analysis by western blot, lysates were diluted into Laemmli sample buffer (Bio-Rad) containing 5% v/v β-mercaptoethanol, heated for 5 min at 95° C., and resolved on Tris-glycine gels or NuPage Bis-Tris gels (Novex; Invitrogen). Biotinylated molecular weight standards (Cell Signaling Technology) were included in all gels. Proteins were transferred to nitrocellulose membranes (Hybond, ECL; Amersham), which were blocked in Tris-buffered saline/0.1% tween 20 (TBST) containing 5% milk, and probed at 4° C. overnight with anti-phospho-Ser520-DYRK1A antibody (Eurogentec SE6974-75; 0.23 μg/ml in 5% BSA) or anti DYRK1A antibody (Abnova H00001859; 0.5 μg/ml in 5% milk). Peroxidase-conjugated secondary antibodies were diluted into 5% milk and applied to membranes for 1 h at 20° C. Chemiluminescence detection was performed using the ECL plus western blotting detection kit (Amersham) and was recorded on ECL plus hyperfilm (Amersham). Blots were scanned using the Bio-Rad GS-800 calibrated densitometer and quantitative analysis of western blots was performed using TotalLab software (Amersham). IC50 values for inhibition of phospho-Ser520-DYRK1A were calculated from dose-response curves plotting the ratio between phospho-Ser520-DYRK1A and total DYRK1A signals at each concentration. […] Anti-phospho-Ser520-DYRK1A antibody (Eurogentec SE6974-75; […]) and anti DYRK1A antibody (Abnova H00001859; 3 μg/ml) was then added for 1 hour at RT, followed by addition of Sulfa-TAG anti-rabbit detection antibody (ref MSD R32AB; 1 μg/ml) and Sulfa-TAG anti-mouse detection antibody (ref MSD R32-AC-1; 1 μg/ml). After a further 1 hour, Read Buffer was added and plates were read on the Sector Imager 2400 (Mesoscale). IC50 values for inhibition of phospho-Ser520-DYRK1A were calculated from dose-response curves.

Structure (SMILES) | IC50 [1] | IC50 [2]
COc1cccc(O[C@@H](C)Cn2c(C)nc3ccc(-c4cc(N)nc(N)c4)nc32)c1 (single isomer, unassigned) [Example 125] | 0.022 µM | 0.151 µM
COc1cccc(O[C@H](C)Cn2c(C)nc3ccc(-c4cc(N)nc(N)c4)nc32)c1 (single isomer, unassigned) [Example 126] | 0.055 µM | 0.271 µM
Cc1cccc(O[C@H](C)Cn2c(C)nc3ccc(-c4cc(N)nc(N)c4)nc32)c1 (single isomer, unassigned) [Example 128] | 0.037 µM | 0.163 µM
Cc1nc2ccc(-c3cc(N)nc(N)c3)nc2n1C[C@H](C)Oc1ccc(F)cc1 (single isomer, unassigned) [Example 129] | 0.037 µM | 0.13 µM
Cc1ccccc1O[C@H](C)Cn1c(C)nc2ccc(-c3cc(N)nc(N)c3)nc21 (single isomer, unassigned) [Example 132] | 0.038 µM | 0.207 µM
Cc1nc2ccc(-c3cc(N)nc(N)c3)nc2n1C[C@@H](C)Oc1ccccc1F (single isomer, unassigned) [Example 134] | 0.038 µM | 0.205 µM
Cc1nc2ccc(-c3cc(N)nc(N)c3)nc2n1C[C@@H](C)Sc1ccccc1 (single isomer, unassigned) [Example 136] | 0.028 µM | 0.247 µM
Cc1nc2ccc(-c3cc(N)nc(N)c3)nc2n1[C@H]1C[C@H]1Cc1ccccc1 (single isomer, unassigned) [Example 137] | 0.048 µM | 0.197 µM
Cc1nc2ccc(-c3cc(N)nc(N)c3)nc2n1[C@H]1C[C@@H]1Cc1ccccc1 (single isomer, unassigned) [Example 138] | 0.052 µM | 0.1 µM

Stronger by IC50 [1], values ahead:

IC50 [1] | IC50 [2] | Structure (SMILES)
0.01 µM | 0.243 µM | Cc1nc2ccc(-c3cc(N)nc(N)c3)nc2n1CC1Cc2ccccc21 (single isomer, unassigned) [Example 113, 4-[3-(bicyclo[4.2.0]octa-1,3,5-trien-7-ylmethyl)-2-methyl-3H-imidazo[4,5-b]pyridin-5-yl]pyridine-2,6-diamine]
0.006 µM | 0.075 µM | Cc1nc2ccc(-c3cc(N)nc(N)c3)nc2n1C[C@H](C)Oc1ccccc1Cl (single isomer, unassigned) [Example 117]
0.004 µM | 0.105 µM | CC[C@@H](Cn1c(C)nc2ccc(-c3cc(N)nc(N)c3)nc21)Oc1ccccc1 (single isomer, unassigned) [Example 119]
0.003 µM | 0.161 µM | CC[C@H](Cn1c(C)nc2ccc(-c3cc(N)nc(N)c3)nc21)Oc1ccccc1 (single isomer, unassigned) [Example 120]
0.008 µM | 0.041 µM | Cc1nc2ccc(-c3cc(N)nc(N)c3)nc2n1C[C@@H](C)N(C)c1ccccc1 (single isomer, unassigned) [Example 121]
0.02 µM | 0.122 µM | Cc1nc2ccc(-c3cc(N)nc(N)c3)nc2n1C[C@H](C)N(C)c1ccccc1 (single isomer, unassigned) [Example 122]
0.01 µM | 0.082 µM | Cc1nc2ccc(-c3cc(N)nc(N)c3)nc2n1C[C@H](C)Oc1cccc(F)c1 (single isomer, unassigned) [Example 123]
0.006 µM | 0.061 µM | Cc1nc2ccc(-c3cc(N)nc(N)c3)nc2n1C[C@@H](C)Oc1cccc(F)c1 (single isomer, unassigned) [Example 124]
0.016 µM | 0.045 µM | Cc1ccccc1O[C@@H](C)Cn1c(C)nc2ccc(-c3cc(N)nc(N)c3)nc21 (single isomer, unassigned) [Example 131]
0.015 µM | 0.074 µM | Cc1nc2ccc(-c3cc(N)nc(N)c3)nc2n1C[C@H](C)Oc1ccccc1F (single isomer, unassigned) [Example 133]
0.016 µM | 0.098 µM | Cc1nc2ccc(-c3cc(N)nc(N)c3)nc2n1C[C@H](C)Sc1ccccc1 (single isomer, unassigned) [Example 135]

— patent publication US20180273528A1 (LES LABORATOIRES SERVIER, priority 2015, published 2018)
